Assay results taken from patent US8796292B2, “Selective antibacterials for clostridium difficile infections” (GLSynthesis Inc., priority 2009, dated 2014).
≈ marks a conversion by molar mass, not a printed value. Read-outs that look alike come from different tables or passages of the source.

What was measured:
Experiment in all cases: agar dilution MIC assay of anaerobic bacteria
L. casei = format: cell-based, Lactobacillus casei; settings: Lacticaseibacillus casei, Strain no. 1722 (ATCC strain), Table 3
Description: (§1) Each compound was assayed against a panel of anaerobic bacteria in culture, consisting of Gram-positive organisms, such as Lactobacilli, Bifidobacteria, Clostridium spp., and Gram-negative bacteria, such as […] fragilis spp., according to guidelines of the Clinical and Laboratory Standards Institute (CLSI document M11-A7, CLSI, Wayne, Pa., 2007). […] One tenth mL of diluted bacteria containing 500-1000 colony-forming units (CFU) was plated and spread, and the plates incubated at 37° C. for 24-48 hours. MIC (minimum inhibitory concentration) is equivalent to the lowest concentration in μg/ml at which growth, i.e., colony formation, is not observed. […] Bacteria were assayed using a reference agar dilution method. Drug dilutions and drug-supplemented agar plates were prepared manually. The test organisms were maintained frozen at −80° C. The isolates were sub-cultured on Supplemented Brucella Agar (SBA) plates in a Bactron II anaerobic chamber and incubated for 48 hours at 35-36° C. in the Bactron II anaerobe chamber. Following inoculation, the drug-supplemented plates were incubated at 35° C. for 48 hours in the anaerobic environment (5% hydrogen, 5% carbon dioxide, 90% nitrogen) of the Bactron II. The MIC in μg/ml was read per Clinical and Laboratory Standards Institute guidelines.

Ba. fragilis = format: cell-based; settings: Bacteroides fragilis, B. fragilis, Strain no. 0123 (ATCC strain), Gram-negative (control), Table 3
Description: as §1

L. acidophilus = format: cell-based; settings: Lactobacillus acidophilus, Strain no. 0681, Table 3
Description: as §1

Bi. brevi = format: cell-based, Bifidobacterium brevi; settings: Bifidobacterium breve; Bi. Breve, Strain no. 3967 (ATCC strain), Table 3
Description: as §1

Bi. longum = format: cell-based, Bifidobacterium longum; settings: Bifidobacterium longum; Bi. Longum, Strain no. 3968 (ATCC strain), Table 3; read-out: MIC
Description: as §1

E. lentum = format: cell-based, Eubacterium lentum; settings: Eggerthella lenta; Eu. Lentum, Strain no. 1274 (ATCC strain), Table 3; read-out: MIC
Description: as §1

C. difficile = format: cell-based, Clostridium difficile
Description: as §1

[1] = Clostridioides difficile, C. diff., Strain no. 3580, Table 3, read-out: MIC
[2] = Clostridioides difficile, C. diff., Strain no. 3581, Table 3, read-out: MIC
[3] = Clostridioides difficile, C. diff., Strain no. 3582, Table 3, read-out: MIC
[4] = Clostridioides difficile, C. diff., Strain no. 3584, Table 3, read-out: MIC
[5] = Clostridioides difficile, C. diff., Strain no. 3585, Table 3, read-out: MIC
[6] = Clostridioides difficile, C. diff., Strain no. 3586, Table 3, read-out: MIC
[7] = Clostridioides difficile, C. diff., Strain no. 3587, Table 3, read-out: MIC
[8] = Clostridioides difficile, C. diff., Strain no. 3588, Table 3, read-out: MIC
[9] = Clostridioides difficile, C. diff., Strain no. 3589, Table 3, read-out: MIC
[10] = Clostridioides difficile, C. diff., Strain no. 4381 (ATCC strain), Table 3, read-out: MIC

| SMILES | MIC (L. casei) [µg/mL] | MIC (Ba. fragilis) [µg/mL] | MIC (L. acidophilus) [µg/mL] | MIC (Bi. brevi) [µg/mL] | MIC (Bi. longum) [µg/mL] | MIC (E. lentum) [µg/mL] | MIC (C. difficile; [1]) [µg/mL] | MIC (C. difficile; [2]) [µg/mL] | MIC (C. difficile; [3]) [µg/mL] | MIC (C. difficile; [4]) [µg/mL] | MIC (C. difficile; [5]) [µg/mL] | MIC (C. difficile; [6]) [µg/mL] | MIC (C. difficile; [7]) [µg/mL] | MIC (C. difficile; [8]) [µg/mL] | MIC (C. difficile; [9]) [µg/mL] | MIC (C. difficile; [10]) [µg/mL] | also measured |
| --- | --- | --- | --- | --- | --- | --- | --- | --- | --- | --- | --- | --- | --- | --- | --- | --- | --- |
| Cl.O=c1cc(NCc2ccc(Cl)c(Cl)c2)[nH]c(=O)n1CCOCCN1CCOCC1 [Compound 240D] | > 32 | > 32 | 16 | > 32 | > 32 | > 32 | 32 | 8 | 32 | 8 | 16 | 8 | 16 | 2 | 16 | 8 | – |
| O=c1[nH]c(NCc2ccc(Cl)c(Cl)c2)nc2ncn(CCOCCN3CCOCC3)c12 [Compound 360A] | > 32 | > 32 | 16 (≈ 34.2 µM) | > 32 | > 32 | > 32 | 16 (≈ 34.2 µM) | 8 (≈ 17.1 µM) | 16 (≈ 34.2 µM) | 4 (≈ 8.56 µM) | 16 (≈ 34.2 µM) | 4 (≈ 8.56 µM) | 8 (≈ 17.1 µM) | 1 (≈ 2.14 µM) | 16 (≈ 34.2 µM) | 8 (≈ 17.1 µM) | – |
| O=c1[nH]c(NCc2ccc(Cl)c(Cl)c2)nc2ncn(CCCN3CCOCC3)c12 [Compound 363A] | – | – | – | – | – | – | – | – | – | – | – | – | – | – | – | – | MIC (C. difficile; C. diff. Strain no. 18285, Table 4): 8 µg/mL (≈ 18.3 µM); MIC (C. difficile; C. diff. Strain no. 19265, Table 4): 8 µg/mL (≈ 18.3 µM); MIC (C. difficile; C. diff. Strain no. 19273, Table 4): 4 µg/mL (≈ 9.15 µM); MIC (C. difficile; C. diff. Strain no. 19281, Table 4): 8 µg/mL (≈ 18.3 µM); MIC (C. difficile; C. diff. Strain no. 19291, Table 4): 4 µg/mL (≈ 9.15 µM); MIC (C. difficile; C. diff. Strain no. 19369, Table 4): 8 µg/mL (≈ 18.3 µM); MIC (C. difficile; C. diff. Strain no. 19382, Table 4): 2 µg/mL (≈ 4.57 µM); MIC (C. difficile; C. diff. Strain no. 19540, Table 4): 4 µg/mL (≈ 9.15 µM); MIC (C. difficile; C. diff. Strain no. 19580, Table 4): 2 µg/mL (≈ 4.57 µM); MIC (C. difficile; C. diff. Strain no. 19680, Table 4): 8 µg/mL (≈ 18.3 µM); MIC (C. difficile; C. diff. Strain no. 19681, Table 4): 4 µg/mL (≈ 9.15 µM); MIC (C. difficile; C. diff. Strain no. 19683, Table 4): 8 µg/mL (≈ 18.3 µM); MIC (C. difficile; C. diff. Strain no. 19687, Table 4): 8 µg/mL (≈ 18.3 µM); MIC (C. difficile; C. diff. Strain no. 20066, Table 4): 8 µg/mL (≈ 18.3 µM); MIC (C. difficile; C. diff. Strain no. 20152, Table 4): 8 µg/mL (≈ 18.3 µM); MIC (C. difficile; C. diff. Strain no. 20307, Table 4): 2 µg/mL (≈ 4.57 µM); MIC (C. difficile; C. diff. Strain no. 20494, Table 4): 8 µg/mL (≈ 18.3 µM); MIC (C. difficile; C. diff. Strain no. 20680, Table 4): 8 µg/mL (≈ 18.3 µM); MIC (C. difficile; C. diff. Strain no. 20934, Table 4): 2 µg/mL (≈ 4.57 µM); MIC (C. difficile; C. diff. Strain no. 21099, Table 4): 8 µg/mL (≈ 18.3 µM) |
